The source of these data is patent US11549134B2, “Modified amadoriase and method for producing the same, agent for improving surfactant resistance of amadoriase and composition for measuring HbA1c using the same” (Kikkoman Corporation, priority 2013, dated 2023).

The test system of one series is CFP-D2. Description: Surfactant resistance of amadoriase during addition of each stabilizer (CFP-D2). It counts as biochemical, genus Coniochaeta. Conditions: 500 mM HEPES (pH 7.0), 0.08% CTAC, 37°C. The protocol: (§1) In the above surfactant resistance measuring method, various stabilizers are added and the residual activity of an amadoriase is measured in order to evaluate the effect of the stabilizers. […] The concentration sufficient to provide a buffer capacity to a solution refers to the concentration at which pH is maintained within a predetermined range (for example pH5 to 10, pH6 to 8) without having pH change due to other reagents added to the solution. A concentration insufficient to provide a buffer capacity to a solution refers to the concentration at which pH changes by addition of other reagents to the solution and pH falls outside a particular range. These concentrations vary depending upon the type and amount of other reagents to be added to a solution; however, a person skilled in the art can appropriately determine the concentration by conventional methods. Other conditions and procedure can be the same as in the above surfactant resistance measuring method.
It was studied whether or not the addition of any of various stabilizers enhanced the surfactant resistance of an amadoriase. Phosphoric acid, a tricarboxylic acid (e.g., citric acid), a dicarboxylic acid (e.g., malic acid, maleic acid, citraconic acid, malonic acid, glutaric acid, or tartaric acid), a monpcarboxylic acid (e.g., acetic acid), MES, MOPS, MOPSO, or ammonium sulfate was used as a stabilizer. As a Comparative Example, CHES was used. […] Using a 500 mM HEPES (pH 7.0) buffering agent and CFP-D2 purified as described above as a sample, any of the stabilizers was further added, and the surfactant resistance of CFP-D2 was evaluated according to the measurement method for surfactant resistance in Example 1 although under more harsh surfactant treatment conditions in which the final concentration of CTAC was set at 0.08% and the treatment temperature at 37° C.

Series [1] concerns CFP-T7. The series is described as follows: Surfactant resistance of amadoriase during addition of each stabilizer (CFP-T7). It counts as biochemical, genus Coniochaeta. Conditions: 500 mM HEPES (pH 7.0), 0.01% CTAC. Here is the method: as §1
It was studied whether or not the addition of any of various stabilizers enhanced the surfactant resistance of an amadoriase. Phosphoric acid, a tricarboxylic acid (e.g., citric acid), a dicarboxylic acid (e.g., malic acid, maleic acid, citraconic acid, malonic acid, glutaric acid, or tartaric acid), a monpcarboxylic acid (e.g., acetic acid), MES, MOPS, MOPSO, or ammonium sulfate was used as a stabilizer. As a Comparative Example, CHES was used. To prevent change in pH when adding the stabilizer, 500 mM HEPES (pH 7.0) was used as a buffer solution; CFP-T7 purified as described above was used as a sample; the final concentration of CTAC was set at 0.01%; and any of the stabilizers was further added to evaluate the surfactant resistance of CFP-T7 according to the measurement method for surfactant resistance in Example 1. Using a 500 mM HEPES (pH 7.0) buffering agent and CFP-D2 purified as described above as a sample, any of the stabilizers was further added, and the surfactant resistance of CFP-D2 was evaluated according to the measurement method for surfactant resistance in Example 1 although under more harsh surfactant treatment conditions in which the final concentration of CTAC was set at 0.08% and the treatment temperature at 37° C.

Another series relates to PnFX. Description: Surfactant resistance of PnFX during addition of each stabilizer. It counts as biochemical, Phaeosphaeria nodorum. Conditions: 300 mM HEPES (pH 7.0), 0.04% CTAC. Here is the method: The same stabilizers as those described above were used as stabilizers; 300 mM HEPES (pH 7.0) was used as a buffering agent to prevent a change in pH when the stabilizers was each added; PnFX purified as described above was used as a sample; the final concentration of CTAC was set at 0.04%; and the surfactant resistance of PnFX was evaluated as described above.

Series [2] has as its system CFP-T7. The series is described as follows: Surfactant resistance of amadoriase in presence of buffering agents. The settings on record: for CFP-T7 Residual Activity (%): 0.01% CTAC, purified CFP-T7. It counts as biochemical, genus Coniochaeta. Here is the method: In the above surfactant resistance measuring method, the residual activity of an amadoriase is measured by using various buffers in place of a 30 mM MES/21 mM Tris buffer solution. In this manner, the contribution of the buffer to the amadoriase residual activity can be evaluated. For example, in place of the 30 mM MES/21 mM Tris buffer solution (pH 6.5), e.g., a phosphate buffer solution (pH 7.0), a citrate buffer solution (pH 6.0), a HEPES buffer solution (pH 7.0) or an ACES buffer solution (pH 7.0) can be used. Other conditions and procedure can be the same as in the above surfactant resistance measuring method.
It was studied whether the surfactant resistance of an amadoriase is enhanced or not when a buffering agent other than a 30 mM MES/21 mM Tris buffering agent (pH 6.5) was used. Using CFP-T7 purified as described above as a sample, the final concentration of CTAC was set at 0.01% to evaluate the surfactant resistance of CFP-T7 according to the measurement method for surfactant resistance in Example 1 in the presence of any of various buffering agents, specifically a phosphate buffering agent containing phosphoric acid and potassium phosphate (pH 7.0), a citrate buffering agent containing citric acid and sodium citrate (pH 6.0), an MES buffering agent containing MES and it sodium salt (pH 7.0), an HEPES buffering agent containing HEPES and its sodium salt (pH 7.0), and an ACES buffering agent containing ACES and its sodium salt (pH 7.0), in place of the 30 mM MES/21 mM Tris buffering agent (pH 6.5).

Series [3] in a line: Measurement of fructosyl peptide sample (αFVH) under mixing of CTAC, change in absorbance at 751 nm. It counts as biochemical. The settings on record: for Amount of Change in Absorbance at Wavelength of 751 nm under Mixing of Each Concentration of CTAC: as in Example 5, Table 7. The protocol:
The purified enzyme of CFP-T7 and CFP-D7 obtained in Example 3-2 was used to measure a sample as shown below. The activity values of CFP-T7 and CFP-D7 were determined using (reagent 1) adjusted to pH 7.0 with αFVH at a final concentration of 5 mM as a substrate according to the method for measuring amadoriase activity.
(Reagent 4) αFVH (125 mg) was dissolved in ion-exchanged water, the volume of the solution was fixed to 10 ml, and thereby a 30 mM substrate solution was obtained. In addition, the resultant was diluted by 1/714 with a CTAC solution to provide a 42 μM αFVH/0% to 0.2% CTAC solution.
(Reagent 6) (50 μl) was added to a mixed solution of 135 μl of (reagent 5) warmed at 37° C. for 5 minutes in advance and 25 μl of the sample prepared in (11) above to start reaction, and absorbance at a wavelength of 751 nm after reaction at 37° C. for 5 minutes was measured using an automated analyzer, Bio Majesty JCA-BM1650 (from JEOL Ltd.). Absorbance (reagent blank) at a wavelength of 751 nm measured by a similar operation for (reagent 4) prepared using ion-exchanged water in place of the substrate solution was used as a control to calculate the amount of change in absorbance (difference) when each sample was measured, using the following equation. The final concentration of a colorimetric substrate, DA-64, was 0.15 mM; the final concentration of αFVH in the case of the presence of a substrate was 5 μM; and the length (optical path) of the cell used for absorbance measurement was 1 cm. Amount of change in absorbance=ΔAes−Ae0
The amount of change in absorbance when αFVH/0% to 0.2% CTAC were used as samples was calculated.
The purified preparations of amadoriases obtained as described above were used as samples to measure αFVH under the mixing of CTAC using PnFX and NvFX as in Example 5.

Setting [4] is: Buffer Solution 50 mM, pH 7.0 (citrate pH 6.0).
[5] abbreviates: Buffer Solution 100 mM, pH 7.0 (citrate pH 6.0).

Take `O=S(=O)(O)CCCN1CCOCC1` [MOPS, 3-(N-morpholino)propanesulfonic acid]: the “CFP-D2 Residual Activity (%)” value in the series with CFP-D2 (Stabilizer 20 mM) is recorded as 42.4%. The “CFP-T7 Residual Activity (%)” value was 6.5% in the series on CFP-T7 [1] (Stabilizer 10 mM, Table 9-2) and 20.6% with CFP-T7 [1] (Stabilizer 20 mM, Table 9-2).

For the molecule `O=P(O)(O)O` [Phosphate, phosphoric acid], the “CFP-D2 Residual Activity (%)” value in the series on CFP-D2 (Stabilizer 5 mM) is given as 72.8%. In addition, the “PnFX Residual Activity (%)” value in the series on PnFX (Stabilizer 5 mM) came out at 37.5%. Also, the “CFP-T7 Residual Activity (%)” value with CFP-T7 [2] (Buffer Solution 20 mM, pH 7.0 (citrate pH 6.0)) turned out to be 15.1%; in the series on CFP-T7 [2] (setting [4]), 27.2%; in the series on CFP-T7 [2] (setting [5]), 68.3%; with CFP-T7 [2] (Buffer Solution 150 mM, pH 7.0) it was 88.5%; in the series on CFP-T7 [2] (Buffer Solution 300 mM, pH 7.0) it was 98.4%; in the series on CFP-T7 [1] (Stabilizer 2 mM, Table 9-1), 28.1%. Moreover, the “CFP-T7 Residual Activity (%)” value with CFP-T7 [1] (Stabilizer 5 mM, Table 9-1) came to 61.6%; in the series on CFP-T7 [1] (Stabilizer 10 mM, Table 9-1), 76.8%; in the series on CFP-T7 [1] (Stabilizer 20 mM, Table 9-1), 98.6%; in the series on CFP-T7 [1] (Stabilizer 50 mM, Table 9-1) it was 100.0%.

In the case of `O=S(=O)(O)CCN1CCOCC1` [MES, 2-(N-morpholino)ethanesulfonic acid], the “PnFX Residual Activity (%)” value in the series on PnFX (Stabilizer 20 mM) came out at 89.6%. Moreover, the “CFP-T7 Residual Activity (%)” value in the series with CFP-T7 [2] (setting [4]) is listed as 14.3%; with CFP-T7 [2] (setting [5]), 17.6%; with CFP-T7 [2] (Buffer Solution 150 mM, pH 7.0) it was 62.9%; with CFP-T7 [2] (Buffer Solution 300 mM, pH 7.0) it was 95.8%; in the series on CFP-T7 [1] (Stabilizer 10 mM, Table 9-1), 19.5%; in the series with CFP-T7 [1] (Stabilizer 20 mM, Table 9-1), 54.1%. The “CFP-T7 Residual Activity (%)” value in the series with CFP-T7 [1] (Stabilizer 40 mM, Table 9-1) came to 103.0%.

As for `O=C(O)CC(O)C(=O)O` (stereo not drawn) [Malate, malic acid], the “CFP-D2 Residual Activity (%)” value in the series with CFP-D2 (Stabilizer 5 mM) was 59.2%. Moreover, the “PnFX Residual Activity (%)” value in the series with PnFX (Stabilizer 5 mM) was 60.4%. Moreover, the “CFP-T7 Residual Activity (%)” value is 12.6% in the series with CFP-T7 [1] (Stabilizer 2 mM, Table 9-1); 35.4% with CFP-T7 [1] (Stabilizer 5 mM, Table 9-1); 74.3% with CFP-T7 [1] (Stabilizer 10 mM, Table 9-1).

For `O=C(O)CC(O)(CC(=O)O)C(=O)O` [Citrate, citric acid], the “PnFX Residual Activity (%)” value with PnFX (Stabilizer 0.5 mM) stood at 47.3%. For the same molecule, the “CFP-T7 Residual Activity (%)” value in the series with CFP-T7 [2] (Buffer Solution 10 mM, pH 7.0 (citrate pH 6.0)) was 104.1%; in the series with CFP-T7 [2] (setting [4]), 108.2%; in the series on CFP-T7 [2] (setting [5]) it was 105.7%; in the series on CFP-T7 [1] (Stabilizer 0.2 mM, Table 9-1), 12.2%; with CFP-T7 [1] (Stabilizer 0.5 mM, Table 9-1), 30.7%; with CFP-T7 [1] (Stabilizer 2 mM, Table 9-1), 87.6%. Moreover, in the series on CFP-T7 [2] (CFP-T7 in the presence of surfactant), the “amadoriase stabilizing effect of the buffer (in words)” value is “inactivation due to the surfactant did not occur even at 10 mM”.

B1: PnFX: fructosyl peptide oxidase derived from Phaeosphaeria nodorum, SEQ ID NO: 40 (protein, listed as Phaeosphaeria nodorum)
chain: MAPSRANTSVIVVGGGGTIGSSTALHLVRSGYTPSNVTVLDAYPIPSSQSAGNDLNKIMGVSLRNPVDLQLALEARQMWNEDELFKKFFHNTGRLDCAHGEKDIADLKSGYQALVDAGLDATNEWLDSEDEILKRMPLLSRDQIKGWKAIFSKDGGWLAAAKAINAVGEYLRDQGVRFGFYGAGSFKAPLLAEGVCIGVETVDGTRYYADKVVLAAGAWSPTLVELHEQCVSKAWVYGHIQLTPEEAARYKNSPVVYNGDVGFFFEPNEHGVIKVCDEFPGFTRFKMHQPFGAKAPKRISVPRSHAKHPTDTIPDASDVSIRRAIATFMPQFKNKKMFNQAMCWCTDTADAALLICEHPEWKNFVLATGDSGHSFKLLPNIGKHVVELLEGTLADDLAHAWRWRPGSGDALKSRRSAPAKDLADMPGWNHDKPRANL
On to B1, for which the “PnFX Residual Activity (%)” value in the series with PnFX (Stabilizer None) stood at 27.9%. In addition, the “measurement of αFVH under the mixing of CTAC (in words)” value in series [3] is listed as “capable of measuring αFVH as a substrate under the mixing of CTAC at a concentration as high as 0.02% or more”. The “Amount of Change in Absorbance at Wavelength of 751 nm under Mixing of Each Concentration of CTAC” value worked out at 0.173 in series [3] (Mixing of CTAC 0%); 0.115 in series [3] (Mixing of CTAC 0.01%); 0.084 in series [3] (Mixing of CTAC 0.02%); 0.026 in series [3] (Mixing of CTAC 0.04%); 0.008 in series [3] (Mixing of CTAC 0.06%); 0.003 in series [3] (Mixing of CTAC 0.1%). Further, in series [3] (Mixing of CTAC 0.2%), the “Amount of Change in Absorbance at Wavelength of 751 nm under Mixing of Each Concentration of CTAC” value is 0.001.
